Publication PMC8752738, “A propolis-derived small molecule ameliorates metabolic syndrome in obese mice by targeting the CREB/CRTC2 transcriptional complex” (Nature Communications, 2022)
“And” between values parts separate entries of the source, which are not always exact repeats. Equal values may be shown once.

Test: Cholesterol, TG, NEFA and glycerol in serum and liver
Assay type: in vivo, mouse
Set-up: liver NEFA, Mean 2 (group mean) / Plasma VLDL cholesterol in db/db mice (VLDL-C) / Plasma VLDL cholesterol in db/db mice, group mean / TC in liver_CT2KO (total cholesterol in the liver of CRTC2-KO) / TC in liver_WT (total cholesterol in the liver) / TC in liver_WT, mean / TC in liver_WT, Mean Diff. VEH vs. drug / TC in liver_CRTC2KO, mean / TC in liver_CRTC2KO, Mean Diff. VEH vs. drug: unit not given here
Conditions: for plasma NEFA, Mean 2 (group mean): vs 0mg/kg mean 1.02; for liver glycerol/protein: Figure 5i; for hepatic NEFA / liver NEFA, Mean 2 (group mean): Figure 5h; for liver NEFA, Mean 2 (group mean): vs 0mg/kg mean 165.9; for Plasma total cholesterol, Mean 1 (drug group): N 6; for HF, plasma TG / HF, plasma TG, group mean / HF, plasma TG (Fast, TG): HF mice; for HF, plasma TG, group mean: n=6; for HF, plasma TG (Fast, TG): fasted
Experimental: Serum total cholesterol (TC), LDL cholesterol (LDL-C), and HDL cholesterol (HDL-C) levels were detected using commercial kits (Beihua, China), and serum VLDL protein was determined by ELISA (Jiancheng, China).
The plasma TG and NEFA levels were determined using corresponding kits from Beihua (China) and WAKO (Japan), respectively. The TG levels of liver and WAT were tested by TG kit (Applygene, China). The NEFA in the liver and WAT were extracted by chloroform–methanol and then subjected to NEFA assay (WAKO).

[1] = APC 10 mg/kg, individual animals
[2] = APC 20 mg/kg, individual animals
[3] = APC-10mg/kg, individual mice, 10 mg/kg
[4] = APC-20mg/kg, individual mice, 20 mg/kg
[5] = HF mice plasma, APC 10 mg/kg, N=5
[6] = HF mice plasma, APC 10 mg/kg, individual animals
[7] = HF mice plasma, APC 20 mg/kg, N=5
[8] = HF mice plasma, APC 20 mg/kg, individual animals
[9] = db/db mice, plasma, individual animals

## CC(C)=CCc1cc(C=CC(=O)O)cc(CC=C(C)C)c1O [APC, 3,5-diprenyl-4-hydroxycinnamic acid]
[1]
  liver TG normolized by protein: 86.3991 µM/mg and 171.894 µM/mg and 414.053 µM/mg and 275.641 µM/mg and 201.326 µM/mg
  HF, plasma TG: 206.957 mg/dL and 266.745 mg/dL and 324.233 mg/dL and 312.736 mg/dL and 213.856 mg/dL and 276.893 mg/dL
  HF, plasma TG (Fast, TG): 2.336 mM and 3.011 mM and 3.66 mM and 3.53 mM and 2.414 mM and 3.1252 mM
APC 10 mg/kg, n=5
  liver TG normolized by protein, group mean: 229.9
APC 10 mg/kg, individual mice, Figure 5g
  plasma NEFA: 1.19 mM (2×) and 1.033 mM and 1.294 mM and 1.373 mM
APC 10mg/kg, n=5, Figure 5g
  plasma NEFA, Mean 2 (group mean): 1.216
[2]
  liver TG normolized by protein: 85.5962 µM/mg and 137.868 µM/mg and 107.422 µM/mg and 121.195 µM/mg and 111.821 µM/mg
  HF, plasma TG: 191.58 mg/dL and 265.587 mg/dL and 200.059 mg/dL and 301.238 mg/dL and 218.455 mg/dL and 257.547 mg/dL
  HF, plasma TG (Fast, TG): 2.1623 mM and 2.9976 mM and 2.258 mM and 3.4 mM and 2.466 mM and 2.907 mM
APC 20 mg/kg, individual mice, Figure 5g
  plasma NEFA: 1.765 mM and 1.686 mM and 1.451 mM and 1.242 mM and 1.507 mM
APC 20mg/kg, n=5, Figure 5g
  plasma NEFA, Mean 2 (group mean): 1.53
[3]
  liver glycerol/protein: 49.7505 nM/mg and 67.3705 nM/mg and 57.1365 nM/mg and 57.0635 nM/mg and 49.612 nM/mg
  hepatic NEFA: 39.07 mM/mg protein and 106.88 mM/mg protein and 150.80 mM/mg protein and 112.30 mM/mg protein and 101.67 mM/mg protein
APC-10mg/kg, n=5
  liver NEFA, Mean 2 (group mean): 102.1
[4]
  liver glycerol/protein: 43.0466 nM/mg and 45.5622 nM/mg and 43.2605 nM/mg and 44.1634 nM/mg and 41.762 nM/mg
  hepatic NEFA: 39.34 mM/mg protein and 26.14 mM/mg protein and 65.42 mM/mg protein and 29.72 mM/mg protein and 45.95 mM/mg protein
APC-20mg/kg, n=5
  liver NEFA, Mean 2 (group mean): 41.31
DIO mice
  NEFA and glycerol levels in the liver: reduced
  NEFA levels in the plasma: significantly enhanced
DIO mice, i.p. daily 5 weeks
  TG in serum and liver; TC, LDL-C, HDL-C, VLDL-C in serum: reduced
Figure 6h, CRTC2KO mice
  Plasma total cholesterol, Mean Diff. vs. VEH: 5.091 mg/dL
Figure 6h, CRTC2KO mice, group mean
  Plasma total cholesterol, Mean 1 (drug group): 223.9 mg/dL
Figure 6h, CRTC2KO mice, individual mice
  TC in plasma_CRTC2KO (plasma total cholesterol): 238.201 mg/dL and 210.746 mg/dL and 206.493 mg/dL and 224.280 mg/dL and 219.253 mg/dL and 244.388 mg/dL
Figure 6h, WT mice
  Plasma total cholesterol, Mean Diff. vs. VEH: -70.45 mg/dL
Figure 6h, WT mice, group mean
  Plasma total cholesterol, Mean 1 (drug group): 208.1 mg/dL
Figure 6h, WT mice, individual mice
  TC in plasma_WT (plasma total cholesterol): 239.748 mg/dL and 207.149 mg/dL and 201.100 mg/dL and 213.669 mg/dL and 202.239 mg/dL and 184.451 mg/dL
[5]
  Plasma HDLC, group mean: 108.7
  Plasma LDLC, group mean: 35.65
  Plasma TC, group mean: 159.1
[6]
  Plasma cholesterol fraction: HDL-C: 121.556 mg/dL and 100.915 mg/dL and 96.3277 mg/dL and 114.676 mg/dL and 110.089 mg/dL
  Plasma cholesterol fraction: TC: 183.52 mg/dL and 143.341 mg/dL and 133.376 mg/dL and 156.357 mg/dL and 178.886 mg/dL
  Plasma cholesterol fraction: lDL-C: 34.819 mg/dL and 32.859 mg/dL and 26.6884 mg/dL and 35.653 mg/dL and 48.218 mg/dL
  plasma VLDL-C in HF mice: 7.592 mM and 8.572 mM and 12.094 mM and 7.185 mM and 10.797 mM
[7]
  Plasma LDLC, group mean: 35.83
  Plasma TC, group mean: 149.8
[8]
  Plasma cholesterol fraction: HDL-C: 115.823 mg/dl and 123.85 mg/dl and 106.649 mg/dl (2×) and 111.236 mg/dl
  Plasma cholesterol fraction: TC: 171.677 mg/dL and 165.819 mg/dL and 163.116 mg/dL and 116.704 mg/dL and 131.574 mg/dL
  Plasma cholesterol fraction: lDL-C: 30.997 mg/dL and 43.001 mg/dL and 39.18 mg/dL and 41.345 mg/dL and 24.6089 mg/dL
  plasma VLDL-C in HF mice: 7.201 mM and 6.888 mM and 6.935 mM and 9.593 mM and 6.573 mM
APC 10 mg/kg
  HF, plasma TG, group mean: 266.9
APC 20 mg/kg
  HF, plasma TG, group mean: 239.1
WT lean mice ip APC, individual mice
  plasma NEFA: 0.3625 mM and 0.9375 mM (2×) and 0.4375 mM (2×) and 0.3875 mM and 0.3375 mM
[9]
  Plasma HDL cholesterol (HDLC) in db/db mice: 102.090 mg/dL and 118.865 mg/dL and 74.315 mg/dL and 130.914 mg/dL and 101.419 mg/dL
  Plasma LDL cholesterol (LDLC) in db/db mice: 136.268 mg/dL and 110.602 mg/dL and 104.635 mg/dL and 153.302 mg/dL and 128.968 mg/dL
  Plasma total cholesterol (TC) in db/db mice: 321.58 mg/dL and 345.006 mg/dL and 255.56 mg/dL and 362.043 mg/dL and 310.931 mg/dL
  plasma TG in db/db mice: 326.962 mg/dL and 300.088 mg/dL and 273.215 mg/dL and 309.046 mg/dL and 418.497 mg/dL
db/db mice, plasma, mean, N 5
  Plasma total cholesterol (TLC) in db/db mice, group mean: 319 mg/dL
db/db mice, plasma, mean, sample size 5
  Plasma VLDL cholesterol in db/db mice, group mean: 14.3
liver, CRTC2-KO mice, VEH minus drug
  TC in liver_CRTC2KO, Mean Diff. VEH vs. drug: 4.338
liver, CRTC2-KO mice, drug minus VEH
  TG in liver_CT2KO, Mean Diff. vs. VEH: 1.019 mg/g protein
liver, CRTC2-KO mice, group mean (Mean 2), N=6
  TC in liver_CRTC2KO, mean: 47.01
liver, CRTC2-KO mice, group mean, N=6
  TG in liver_CT2KO, mean: 16.67 mg/g protein
liver, CRTC2-KO mice, individual animals, Supp.fig.5c
  TG in liver_CT2KO: 24.3792 mg/g protein and 12.893 mg/g protein and 18.4652 mg/g protein and 10.1068 mg/g protein and 21.2872 mg/g protein and 12.8898 mg/g protein
liver, CRTC2-KO mice, individual animals, Supp.fig.5d
  TC in liver_CT2KO (total cholesterol in the liver of CRTC2-KO): 58.4768 and 29.5309 and 45.7311 and 42.1461 and 61.1694 and 45.0332
liver, WT mice, VEH minus drug
  TC in liver_WT, Mean Diff. VEH vs. drug: 14.77
liver, WT mice, drug minus VEH
  TG in liver_WT, Mean Diff. vs. VEH: -10.82 mg/g protein
liver, WT mice, group mean (Mean 2), N=6
  TC in liver_WT, mean: 45.59
liver, WT mice, group mean, N=6
  TG in liver_WT, mean: 9.137 mg/g protein
liver, WT mice, individual animals, Supp.fig.5c
  TG in liver_WT: 10.5445 mg/g protein and 8.1654 mg/g protein and 11.0077 mg/g protein and 10.5773 mg/g protein and 6.8582 mg/g protein and 7.67 mg/g protein
liver, WT mice, individual animals, Supp.fig.5d
  TC in liver_WT (total cholesterol in the liver): 40.0962 and 49.3508 and 44.4273 and 45.043 and 48.2093 and 46.4302
Oral 20 mg/kg, 3 weeks
  plasma and liver cholesterol, liver TG in Crtc2-KO mice: little effect
